{"source": "patent US20250092029A1", "about": "(THE WISTAR INSTITUTE OF ANATOMY AND BIOLOGY, priority 2022, published 2025)", "format_in_all_cases": "cell-based", "key": {"[1]": {"test_system": "SARS-CoV-2 (USA-WA1/2020 variant)", "test": "Virus CPE assay in Vero-E6 cells, USA-WA1/2020", "settings": "for EC50: USA-WA1/2020, Vero-E6, 4 days, read-out: EC50, inhibition of CPE; for inhibition at 3 µM: single treatment at 3 μM"}, "[2]": {"test_system": "SARS-CoV-2 B.1.1.7/Alpha variant", "test": "Virus CPE assay in Vero-E6 cells, B.1.1.7", "settings": "Severe acute respiratory syndrome coronavirus 2, Vero C1008, 96 h; B.1.1.7, Vero-E6, 4 days; read-out: EC50, inhibition of CPE"}, "[3]": {"test_system": "SARS-CoV-2 B.1.351/Beta variant", "test": "Virus CPE assay in Vero-E6 cells, B.1.351", "settings": "Severe acute respiratory syndrome coronavirus 2, Vero C1008, 96 h; B.1.351, Vero-E6, 4 days; read-out: EC50, inhibition of CPE"}, "[4]": {"settings": "Severe acute respiratory syndrome coronavirus 2, Vero C1008, 96 h"}, "[5]": {"settings": "Severe acute respiratory syndrome coronavirus 2, Vero C1008, 5 experiments of 8-fold replicates, read-out: percent of wells with CPE inhibited"}}, "note": "Like-named read-outs stand apart in the source and are kept apart here.", "data": [{"compound": "COc1cccc2[nH]c(C(=O)N[C@@H](CC(C)C)C(=O)N[C@@H](C[C@@H]3CCNC3=O)C(=O)COC(=O)c3c(Cl)cccc3Cl)cc12", "note": "[AP-8-001, reference compound]", "values": [{"measurement": "EC50", "setting": "[1]; [4]", "value": "1.2 ± 0.3", "unit": "µM"}]}, {"compound": "O=C(CN1C(=O)[C@@H](NC(=O)c2ccccc2)COc2ccccc21)N[C@@H](C[C@@H]1CCNC1=O)C(=O)COC(=O)c1c(Cl)cccc1Cl", "note": "[AP-8-011, (S)-3-(2-((S)-3-benzamido-4-oxo-3,4-dihydrobenzo[b][1,4]oxazepin-5(2H)-yl)acetamido)-2-oxo-4-((S)-2-oxopyrrolidin-3-yl)butyl 2,6-dichlorobenzoate]", "values": [{"measurement": "EC50", "setting": "[1]; [4]", "value": "14.1 ± 3.6", "unit": "µM"}]}, {"compound": "O=C(CN1C(=O)[C@@H](NC(=O)OCc2ccccc2)COc2ccccc21)N[C@@H](C[C@@H]1CCNC1=O)C(=O)COC(=O)c1c(Cl)cccc1Cl", "note": "[AP-8-013, (S)-3-(2-((S)-3-(benzyloxycarbonylamino)-4-oxo-3,4-dihydrobenzo[b][1,4]oxazepin-5(2H)-yl)acetamido)-2-oxo-4-((S)-2-oxopyrrolidin-3-yl)butyl 2,6-dichlorobenzoate]", "values": [{"measurement": "EC50", "setting": "[1]; [4]", "value": "12.8 ± 1.6", "unit": "µM"}, {"measurement": "inhibition at 3 µM", "setting": "[1]; [5]", "value": 7.5, "unit": "%"}, {"measurement": "EC50", "setting": "[2]", "value": "10.6 ± 1", "unit": "µM"}, {"measurement": "EC50", "setting": "[3]", "value": "5.5 ± 0.4", "unit": "µM"}]}, {"compound": "CC(C)C[C@H](NC(=O)OCc1ccccc1)C(=O)N[C@@H](C[C@@H]1CCNC1=O)C(O)S(=O)(=O)O", "note": "(stereo partly drawn) [GC-376]", "values": [{"measurement": "EC50", "setting": "[1]; [4]", "value": "3.4 ± 0.9", "unit": "µM"}, {"measurement": "EC50", "setting": "[1]", "value": "3.3 ± 1.2", "unit": "µM"}, {"measurement": "EC50", "setting": "[2]", "value": "1.3 ± 0.6", "unit": "µM"}]}, {"compound": "CCC(CC)COC(=O)[C@H](C)N[P@](=O)(OC[C@H]1O[C@@](C#N)(c2ccc3c(N)ncnn23)[C@H](O)[C@@H]1O)Oc1ccccc1", "note": "[Remdesivir]", "values": [{"measurement": "EC50", "setting": "[1]; [4]", "value": "3.1 ± 0.7", "unit": "µM"}, {"measurement": "inhibition at 1 µM", "setting": "[1]; Severe acute respiratory syndrome coronavirus 2, Vero C1008, single treatment at 1 μM, 5 experiments of 8-fold replicates, read-out: percent of wells with CPE inhibited", "value": "2.5 ± 2.5", "unit": "%"}, {"measurement": "inhibition at 3 µM", "setting": "[1]; [5]", "value": "15 ± 9.2", "unit": "%"}]}]}
